From patent US20110070357A1, “Apparatus and Methods for Loading a Drug Eluting Medical Device” (Medtronic Vascular, Inc., priority 2009, published 2011)

Assay: solubility of sirolimus in solvents / dispersion media
Assay type: physicochemical
Protocol: Solution 524 is a homogeneous mixture in which therapeutic substance 112 dissolves within a solvent or a solvent mixture. In one embodiment, solution 524 includes a high-capacity solvent 528 which is an organic solvent that has a high capacity to dissolve therapeutic substance 112. High capacity as utilized herein is defined as an ability to dissolve therapeutic substance 112 at concentrations greater than 500 mg of substance per milliliter of solvent. Examples of high capacity drug dissolving solvents for sirolimus and similar substances include but are not limited to tetrahydrofuran (THF), di-chloromethane (DCM), chloroform, and di-methyl-sulfoxide (DMSO). In addition to the high-capacity solvent, solution 524 may include an excipient 526 in order to assist in drug elution. In one embodiment, excipient 526 may be a surfactant such as but not limited to sorbitan fatty acid esters such as sorbitan monooleate and sorbitan monolaurate, polysorbates such as polysorbate 20, polysorbate 60, and polysorbate 80, cyclodextrins such as 2-hydroxypropyl-beta-cyclodextrin and 2,6-di-O-methyl-beta-cyclodextrin, sodium dodecyl sulfate, octyl glucoside, and low molecular weight poly(ethylene glycol)s. In another embodiment, excipient 526 may be a hydrophilic agent such as but not limited to salts such as sodium chloride and other materials such as urea, citric acid, and ascorbic acid. […]

With `CO[C@H]1C[C@@H]2CC[C@@H](C)[C@@](O)(O2)C(=O)C(=O)N2CCCC[C@H]2C(=O)O[C@H]([C@H](C)C[C@@H]2CC[C@@H](O)[C@H](OC)C2)CC(=O)[C@H](C)/C=C(\C)[C@@H](O)[C@@H](OC)C(=O)[C@H](C)C[C@H](C)/C=C/C=C/C=C/1C` [sirolimus] as the molecule, how does the solubility in hexane (hexane) read?
The solubility in hexane was “insoluble in hexane”.

And the solubility in water (water)?
Its solubility in water is “insoluble in water”.
